Source: the NIST ThermoML archive (doi:10.1007/s10765-012-1371-1)
± gives the expanded uncertainty stated by the source.

Tests used:
[1] = 101 kPa, Liquid
[2] = xn = mol fraction of the nth substance listed; conditions: 101 kPa, Liquid

CC(C)CCl [1-chloro-2-methylpropane]
[1]
Conditions	viscosity [mPa·s]
283.15 K	0.5155 ± 0.0096
288.15 K	0.4833 ± 0.0092
293.15 K	0.454 ± 0.0087
298.15 K	0.4296 ± 0.0083
303.15 K	0.4112 ± 0.008
308.15 K	0.3921 ± 0.0078
313.15 K	0.3726 ± 0.0075

CC(C)CCl [1-chloro-2-methylpropane] + CCCCOCC
[2], x1 = 1
Conditions	viscosity [mPa·s]
283.15 K	0.5155 ± 0.0096
288.15 K	0.4833 ± 0.0092
293.15 K	0.454 ± 0.0087
298.15 K	0.4296 ± 0.0083
303.15 K	0.4112 ± 0.008
308.15 K	0.3921 ± 0.0078
313.15 K	0.3726 ± 0.0075

CCCCCl [1-chlorobutane]
[1]
Conditions	viscosity [mPa·s]
283.15 K	0.4993 ± 0.0094
288.15 K	0.4701 ± 0.009
293.15 K	0.4433 ± 0.0085
298.15 K	0.4214 ± 0.0082
303.15 K	0.405 ± 0.0079
308.15 K	0.3885 ± 0.0077
313.15 K	0.3642 ± 0.0074

CCCCCl [1-chlorobutane] + CCCCOCC
[2], x1 = 1
Conditions	viscosity [mPa·s]
283.15 K	0.4993 ± 0.0094
288.15 K	0.4701 ± 0.009
293.15 K	0.4433 ± 0.0085
298.15 K	0.4214 ± 0.0082
303.15 K	0.405 ± 0.0079
308.15 K	0.3885 ± 0.0077
313.15 K	0.3642 ± 0.0074

CCC(C)Cl (configuration not stated) [2-chlorobutane]
[1]
Conditions	viscosity [mPa·s]
283.15 K	0.4631 ± 0.0088
288.15 K	0.4365 ± 0.0084
293.15 K	0.4167 ± 0.0081
298.15 K	0.3993 ± 0.0079
303.15 K	0.38 ± 0.0076
308.15 K	0.3615 ± 0.0073
313.15 K	0.3443 ± 0.0071

CCC(C)Cl (configuration not stated) [2-chlorobutane] + CCCCOCC
[2], x1 = 1
Conditions	viscosity [mPa·s]
283.15 K	0.4631 ± 0.0088
288.15 K	0.4365 ± 0.0084
293.15 K	0.4167 ± 0.0081
298.15 K	0.3993 ± 0.0079
303.15 K	0.38 ± 0.0076
308.15 K	0.3615 ± 0.0073
313.15 K	0.3443 ± 0.0071

COC(C)(C)C [2-methoxy-2-methylpropane]
[1]
Conditions	viscosity [mPa·s]
283.15 K	0.3897 ± 0.0078
288.15 K	0.364 ± 0.0074
293.15 K	0.3482 ± 0.0071
298.15 K	0.3327 ± 0.0069
303.15 K	0.3152 ± 0.0066
308.15 K	0.2994 ± 0.0064
313.15 K	0.2846 ± 0.0062

COC(C)(C)C [2-methoxy-2-methylpropane] + CC(C)CCl
[2], x2 = 0
Conditions	viscosity [mPa·s]
283.15 K	0.3897 ± 0.0078
288.15 K	0.364 ± 0.0074
293.15 K	0.3482 ± 0.0071
298.15 K	0.3327 ± 0.0069
303.15 K	0.3152 ± 0.0066
308.15 K	0.2994 ± 0.0064
313.15 K	0.2846 ± 0.0062

COC(C)(C)C [2-methoxy-2-methylpropane] + CCC(C)Cl
[2], x2 = 0
Conditions	viscosity [mPa·s]
283.15 K	0.3897 ± 0.0078
288.15 K	0.364 ± 0.0074
293.15 K	0.3482 ± 0.0071
298.15 K	0.3327 ± 0.0069
303.15 K	0.3152 ± 0.0066
308.15 K	0.2994 ± 0.0064
313.15 K	0.2846 ± 0.0062

COC(C)(C)C [2-methoxy-2-methylpropane] + CCCCCl
[2], x2 = 0
Conditions	viscosity [mPa·s]
283.15 K	0.3897 ± 0.0078
288.15 K	0.364 ± 0.0074
293.15 K	0.3482 ± 0.0071
298.15 K	0.3327 ± 0.0069
303.15 K	0.3152 ± 0.0066
308.15 K	0.2994 ± 0.0064
313.15 K	0.2846 ± 0.0062

CCCCOCC [butyl ethyl ether]
[1]
Conditions	viscosity [mPa·s]
283.15 K	0.4796 ± 0.0091
288.15 K	0.4509 ± 0.0087
293.15 K	0.4242 ± 0.0083
298.15 K	0.399 ± 0.0079
303.15 K	0.3756 ± 0.0075
308.15 K	0.356 ± 0.0072
313.15 K	0.3416 ± 0.007
